# Reference: the supplement of paper PMC11061612
# Assays:
# Assay in all cases: combination Emax (second highest fraction inhibited in the dose matrix, 72 h); higher = more inhibition; extreme values may be limits of the assay
# [1] = system: ECC10 (Gastric Carcinoma)
# How it was run: (§1)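 Cell lines in DMEM/F12 or RPMI with 10% FBS were plated in 1536-well plates, held 24 hours at 37°C, 5% CO2, then given two-drug dose matrices for 72 hours (DMSO typically 0.2%). Viability was read by CellTiter-Glo 2.0 luminescence and scaled as inhibition from 0 (vehicle wells) to 1 (blank wells). Combination Emax is the second-highest inhibition in the matrix; Bliss excess is observed combination effect minus expected EA + EB − EA·EB, EA and EB being single-agent effects.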
# [2] = system: NCI-H64 (Small Cell Lung Carcinoma)
# How it was run: as §1
# [3] = system: SK-MG-1 (Low Grade Glioma)
# How it was run: as §1
# LN-405 (Glioblastoma) = system: LN-405 (Glioblastoma)
# How it was run: as §1
# [4] = system: NCI-H1693 (Lung Adenocarcinoma)
# How it was run: as §1
# [5] = system: CAPAN-2 (Pancreatic Carcinoma)
# How it was run: as §1
# [6] = system: A549 (Lung Adenocarcinoma)
# How it was run: as §1
# NY (Osteosarcoma) = system: NY (Osteosarcoma)
# How it was run: as §1
# ARH-77 (Non-Cancerous) = system: ARH-77 (Non-Cancerous)
# How it was run: as §1
# [7] = system: COLO-824 (Breast Carcinoma)
# How it was run: as §1
# Hs-445 (Non-Cancerous) = system: Hs-445 (Non-Cancerous)
# How it was run: as §1
# [8] = system: CCK-81 (Colorectal Carcinoma)
# How it was run: as §1
# [9] = system: VCaP (Prostate Carcinoma)
# How it was run: as §1
# U-2-OS (Osteosarcoma) = system: U-2-OS (Osteosarcoma)
# How it was run: as §1
# [10] = system: PANC-10-05 (Pancreatic Carcinoma)
# How it was run: as §1
# GI-ME-N (Neuroblastoma) = system: GI-ME-N (Neuroblastoma)
# How it was run: as §1
# [11] = system: OS-RC-2 (Kidney Carcinoma)
# How it was run: as §1
# FU97 (Gastric Carcinoma) = system: FU97 (Gastric Carcinoma)
# How it was run: as §1
# [12] = system: SK-MES-1 (Squamous Cell Lung Carcinoma)
# How it was run: as §1
# [13] = system: NCI-H2141 (Small Cell Lung Carcinoma)
# How it was run: as §1
SMILES,combination Emax [1],combination Emax [2],combination Emax [3],combination Emax (LN-405 (Glioblastoma)),combination Emax [4],combination Emax [5],combination Emax [6],combination Emax (NY (Osteosarcoma)),combination Emax (ARH-77 (Non-Cancerous)),combination Emax [7],combination Emax (Hs-445 (Non-Cancerous)),combination Emax [8],combination Emax [9],combination Emax (U-2-OS (Osteosarcoma)),combination Emax [10],combination Emax (GI-ME-N (Neuroblastoma)),combination Emax [11],combination Emax (FU97 (Gastric Carcinoma)),combination Emax [12],combination Emax [13]
"Cc1c2c(nn1C)CSCc1cc(n(C)n1)CSc1cc(c3ccccc3c1)OCCCc1c(C(=O)O)n(C)c3c-2c(Cl)ccc13 [AZD5991] + C[C@@H](Nc1cc(F)cc(F)c1)c1cc(C(=O)N(C)C)cc2c(=O)cc(N3CCOCC3)oc12 [AZD8186] (first compound max 1 µM, 7x7, partner max 3 µM)",0.721,0.406,0.648,0.572,0.236,0.252,0.476,0.631,0.928,0.441,0.929,0.899,0.935,0.238,0.311,0.301,0.471,0.445,0.381,0.3
"Cc1c2c(nn1C)CSCc1cc(n(C)n1)CSc1cc(c3ccccc3c1)OCCCc1c(C(=O)O)n(C)c3c-2c(Cl)ccc13 [AZD5991] + Cc1cc2ncnn2cc1Nc1ncc2c(n1)n(C1CCOCC1)c(=O)n2C [AZD7648] (first compound max 1 µM, 7x7, partner max 10 µM)",0.669,0.341,0.374,0.37,0.256,0.291,0.461,0.579,0.835,0.364,0.942,0.933,0.94,0.261,0.404,0.228,0.286,0.293,0.223,0.307
"Cc1cc2ncnn2cc1Nc1ncc2c(n1)n(C1CCOCC1)c(=O)n2C [AZD7648] + C=CCn1c(=O)c2cnc(Nc3ccc(N4CCN(C)CC4)cc3)nc2n1-c1cccc(C(C)(C)O)n1 [AZD1775] (first compound max 10 µM, partner max 1 µM)",0.797,0.89,0.594,0.281,0.323,0.485,0.578,0.548,0.969,0.658,0.909,0.833,0.533,0.614,0.49,0.393,0.419,0.397,0.711,0.647
"Cc1cc2ncnn2cc1Nc1ncc2c(n1)n(C1CCOCC1)c(=O)n2C [AZD7648] + CCN(CCO)CCCOc1ccc2c(Nc3cc(CC(=O)Nc4cccc(F)c4)[nH]n3)ncnc2c1 [AZD2811] (first compound max 10 µM, 7x7, partner max 1 µM)",0.908,0.596,0.461,0.186,0.263,0.239,0.718,0.242,0.54,0.762,0.465,0.291,0.314,0.229,0.43,0.207,0.287,0.337,0.373,0.358
"Cc1cc2ncnn2cc1Nc1ncc2c(n1)n(C1CCOCC1)c(=O)n2C [AZD7648] + CN(C)CCCOc1ccc(-c2ccc3ncc4c(c3c2)n(C2CCOCC2)c(=O)n4C)cn1 [AZD0156] (first compound max 10 µM, 7x7, partner max 1 µM)",0.323,0.279,0.359,0.164,0.222,0.253,0.468,0.286,0.54,0.283,0.313,0.299,0.265,0.176,0.483,0.157,0.261,0.382,0.28,0.229
"Cc1cc2ncnn2cc1Nc1ncc2c(n1)n(C1CCOCC1)c(=O)n2C [AZD7648] + C[C@@H]1COCCN1C2=NC(=NC(=C2)C3(CC3)[S@](=N)(=O)C)C4=C5C=CNC5=NC=C4 [AZD6738] (first compound max 10 µM, 7x7, partner max 10 µM)",0.421,0.811,0.584,0.43,0.294,0.346,0.786,0.527,0.89,0.738,0.853,0.9,0.452,0.675,0.49,0.59,0.419,0.42,0.72,0.578
"Cc1cc2ncnn2cc1Nc1ncc2c(n1)n(C1CCOCC1)c(=O)n2C [AZD7648] + O=C(c1cc(Cc2n[nH]c(=O)c3ccccc23)ccc1F)N1CCN(C(=O)C2CC2)CC1 [Olaparib] (first compound max 10 µM, 7x7, partner max 10 µM)",0.158,0.134,0.238,0.183,0.172,0.0547,0.59,0.14,0.522,0.279,0.373,0.162,0.141,0.118,0.299,0.141,0.224,0.291,0.177,0.218
"NC1(C(=O)N[C@@H](CCO)c2ccc(Cl)cc2)CCN(c2ncnc3[nH]ccc23)CC1 [Capivasertib] + CC(=O)c1c(C)c2cnc(Nc3ccc(N4CCNCC4)cn3)nc2n(C2CCCC2)c1=O [Palbociclib] (first compound max 10 µM, 7x7, partner max 10 µM)",0.506,0.332,0.62,0.577,0.485,0.242,0.764,0.161,0.705,0.612,0.613,0.337,0.514,0.408,0.49,0.422,0.454,0.358,0.5,0.299
"NC1(C(=O)N[C@@H](CCO)c2ccc(Cl)cc2)CCN(c2ncnc3[nH]ccc23)CC1 [Capivasertib] + CC(C)n1c(=O)n(C)c2cnc3cc(F)c(-c4ccc(OCCCN5CCCCC5)nc4)cc3c21 [AZD1390] (first compound max 10 µM, 7x7, partner max 0.3 µM)",0.274,0.251,0.519,0.489,0.315,0.222,0.59,0.309,0.657,0.464,0.483,0.327,0.458,0.288,0.416,0.335,0.401,0.361,0.237,0.249
"NC1(C(=O)N[C@@H](CCO)c2ccc(Cl)cc2)CCN(c2ncnc3[nH]ccc23)CC1 [Capivasertib] + CCN(CCO)CCCOc1ccc2c(Nc3cc(CC(=O)Nc4cccc(F)c4)[nH]n3)ncnc2c1 [AZD2811] (first compound max 10 µM, 7x7, partner max 1 µM)",0.86,0.668,0.607,0.497,0.36,0.219,0.698,0.257,0.748,0.85,0.678,0.366,0.543,0.383,0.42,0.324,0.445,0.369,0.36,0.345
"NC1(C(=O)N[C@@H](CCO)c2ccc(Cl)cc2)CCN(c2ncnc3[nH]ccc23)CC1 [Capivasertib] + COc1nnc2ccc(N3CCC(c4ccc(OCCN5CCN(C)C(=O)[C@H]5C)cc4)CC3)nn12 [AZD5153] (first compound max 10 µM, 7x7, partner max 1 µM)",0.981,0.548,0.721,0.623,0.554,0.33,0.823,0.346,0.885,0.776,0.722,0.695,0.96,0.354,0.669,0.343,0.433,0.821,0.583,0.377
"NC1(C(=O)N[C@@H](CCO)c2ccc(Cl)cc2)CCN(c2ncnc3[nH]ccc23)CC1 [Capivasertib] + C[C@@H]1COCCN1C2=NC(=NC(=C2)C3(CC3)[S@](=N)(=O)C)C4=C5C=CNC5=NC=C4 [AZD6738] (first compound max 10 µM, 7x7, partner max 10 µM)",0.498,0.861,0.668,0.615,0.44,0.219,0.848,0.645,0.927,0.68,0.78,0.857,0.567,0.535,0.519,0.411,0.481,0.482,0.855,0.557
"NC1(C(=O)N[C@@H](CCO)c2ccc(Cl)cc2)CCN(c2ncnc3[nH]ccc23)CC1 [Capivasertib] + Cn1cnc2c(F)c(Nc3ccc(Br)cc3Cl)c(C(=O)NOCCO)cc21 [Selumetinib] (first compound max 10 µM, 7x7, partner max 10 µM)",0.506,0.321,0.681,0.539,0.44,0.504,0.922,0.305,0.674,0.595,0.623,0.737,0.487,0.892,0.727,0.377,0.439,0.397,0.768,0.214
